Test results reported in ChEMBL document CHEMBL1201862, “PubChem BioAssay data set” (2004).
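Where inhibition never reached the appropriate level, the endpoint shown equals the highest concentration tested. Otherwise, values were interpolated linearly from a five-concentration, 48-hour dose response in 96-well plates. The concentration for 50% growth inhibition is given as GI50.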 Active and inactive are the calls of the source. No stated cut-off is given here; in the data, active = GI50 up to about 1.1 µM and inactive = higher.

Key:
Assay in all cases: growth of human tumour cells (NCI), 48 h
CCRF-CEM = system: CCRF-CEM
SK-MEL-5 = system: SK-MEL-5
HCT-116 = system: HCT-116
CAKI-1 = system: CAKI-1
SF-268 = system: SF-268
EKVX = system: EKVX
OVCAR-3 = system: OVCAR-3
HCC 2998 = system: HCC 2998
K562 = system: K562
RPMI-8226 = system: RPMI-8226
SNB-19 = system: SNB-19
SK-OV-3 = system: SK-OV-3
A549 = system: A549
COLO 205 = system: COLO 205
OVCAR-5 = system: OVCAR-5
HT-29 = system: HT-29
IGROV-1 = system: IGROV-1
HCT-15 = system: HCT-15
UACC-257 = system: UACC-257
OVCAR-8 = system: OVCAR-8

Measured: GI50

O=C1Oc2ccc([N+](=O)[O-])cc2N/C1=C\C(=O)c1ccccc1
inactive: CCRF-CEM 43.5 µM | SK-MEL-5 > 100 µM | HCT-116 > 100 µM | CAKI-1 > 100 µM | SF-268 > 100 µM | EKVX > 100 µM | OVCAR-3 > 100 µM | HCC 2998 28.1 µM | K562 > 100 µM | RPMI-8226 > 100 µM | SNB-19 > 100 µM | SK-OV-3 > 100 µM | A549 > 100 µM | COLO 205 97.5 µM | OVCAR-5 > 100 µM | HT-29 > 100 µM | IGROV-1 > 100 µM | UACC-257 > 100 µM | OVCAR-8 > 100 µM
> 100 µM: HCT-15

COc1cc(/C=C/C2=C(C#N)C(=O)OC2(C)C)ccc1O
28 µM: HCT-15
inactive: CCRF-CEM 13.3 µM | SK-MEL-5 > 100 µM | HCT-116 37.9 µM | CAKI-1 > 100 µM | SF-268 46.6 µM | EKVX > 100 µM | OVCAR-3 > 100 µM | HCC 2998 71.9 µM | K562 29.1 µM | RPMI-8226 20.4 µM | SNB-19 > 100 µM | SK-OV-3 > 100 µM | A549 > 100 µM | COLO 205 45.4 µM | OVCAR-5 > 100 µM | HT-29 48.2 µM | IGROV-1 > 100 µM | UACC-257 > 100 µM | OVCAR-8 51.8 µM

C=C1OC(=O)[C@]2([C@@H](/C=C/C)C=CC(=O)[C@H]2O)[C@@H]1O
> 100 µM: HCT-15
inactive: CCRF-CEM > 100 µM | SK-MEL-5 > 100 µM | HCT-116 > 100 µM | CAKI-1 > 100 µM | SF-268 > 100 µM | EKVX > 100 µM | OVCAR-3 > 100 µM | HCC 2998 > 100 µM | K562 > 100 µM | RPMI-8226 > 100 µM | SNB-19 > 100 µM | SK-OV-3 > 100 µM | A549 > 100 µM | COLO 205 > 100 µM | OVCAR-5 > 100 µM | HT-29 > 100 µM | IGROV-1 > 100 µM | UACC-257 > 100 µM | OVCAR-8 > 100 µM

CN1CC=C(c2cccn2C)CC1
inactive: CCRF-CEM > 100 µM | SK-MEL-5 > 100 µM | HCT-116 > 100 µM | CAKI-1 > 100 µM | SF-268 > 100 µM | EKVX > 100 µM | OVCAR-3 > 100 µM | HCC 2998 > 100 µM | K562 > 100 µM | RPMI-8226 > 100 µM | SNB-19 > 100 µM | SK-OV-3 > 100 µM | A549 > 100 µM | COLO 205 > 100 µM | OVCAR-5 > 100 µM | HT-29 > 100 µM | IGROV-1 > 100 µM | UACC-257 > 100 µM | OVCAR-8 > 100 µM
> 100 µM: HCT-15

C=C/C(C)=C/[C@H](C)C(=O)C[C@H](O)CC1CC(=O)NC(=O)C1
44.7 µM: HCT-15
inactive: CCRF-CEM 25 µM | SK-MEL-5 34.5 µM | HCT-116 40.3 µM | CAKI-1 13.6 µM | SF-268 36 µM | EKVX 24.1 µM | OVCAR-3 49.2 µM | HCC 2998 20.2 µM | K562 43.4 µM | RPMI-8226 31.8 µM | SNB-19 18.7 µM | SK-OV-3 > 41.9 µM | A549 51.3 µM | COLO 205 34.1 µM | OVCAR-5 58.9 µM | HT-29 34 µM | IGROV-1 19.9 µM | UACC-257 30.1 µM | OVCAR-8 24.2 µM

COc1cc2cc(C(=O)N3CC(CCl)c4c3cc(N(C)C)c3ccccc43)[nH]c2c(OC)c1OC (stereo not given)
< 0.0115 µM: HCT-15
active: CCRF-CEM < 0.01 µM | SK-MEL-5 < 0.01 µM | HCT-116 < 0.01 µM | CAKI-1 < 0.01 µM | SF-268 < 0.01 µM | EKVX < 0.01 µM | OVCAR-3 0.0127 µM | HCC 2998 0.0101 µM | K562 < 0.01 µM | RPMI-8226 0.0144 µM | SNB-19 0.0124 µM | SK-OV-3 0.0137 µM | A549 < 0.01 µM | COLO 205 0.012 µM | OVCAR-5 < 0.0108 µM | HT-29 < 0.01 µM | IGROV-1 0.0111 µM | UACC-257 0.0273 µM | OVCAR-8 < 0.01 µM

O=Cc1cn(CCCCCCCCn2cc(C=O)c3ccccc32)c2ccccc12
inactive: CCRF-CEM > 10 µM | SK-MEL-5 4.17 µM | HCT-116 7.4 µM | CAKI-1 > 10 µM | SF-268 > 10 µM | EKVX > 10 µM | OVCAR-3 > 10 µM | HCC 2998 > 10 µM | K562 3.27 µM | RPMI-8226 3.96 µM | SNB-19 > 10 µM | SK-OV-3 > 10 µM | A549 6.59 µM | COLO 205 > 10 µM | OVCAR-5 8.79 µM | HT-29 > 10 µM | IGROV-1 > 10 µM | OVCAR-8 > 10 µM
> 10 µM: HCT-15

O=c1ccn(CC2(CO)CC(Cc3ccccc3)C2)c(=O)[nH]1 (stereo not given)
> 100 µM: HCT-15
inactive: CCRF-CEM > 100 µM | SK-MEL-5 > 100 µM | HCT-116 > 100 µM | CAKI-1 > 100 µM | SF-268 > 100 µM | EKVX > 100 µM | OVCAR-3 > 100 µM | HCC 2998 > 100 µM | K562 > 100 µM | RPMI-8226 > 100 µM | SK-OV-3 > 100 µM | A549 > 100 µM | COLO 205 > 100 µM | OVCAR-5 > 100 µM | HT-29 > 100 µM | IGROV-1 > 100 µM | UACC-257 > 100 µM | OVCAR-8 > 100 µM

CCOC(=O)c1ccc(N[C@@H]2c3cc4c(cc3C(c3cc(OC)c(O)c(OC)c3)[C@H]3C(=O)OCC32)OCO4)cc1 (stereo not given in full)
0.379 µM: HCT-15
inactive: HCT-116 1.17 µM | EKVX 1.77 µM | OVCAR-3 2.85 µM | HCC 2998 1.22 µM | COLO 205 3.15 µM | OVCAR-5 1.56 µM | HT-29 1.94 µM | IGROV-1 3.27 µM | UACC-257 3.57 µM
active: CCRF-CEM 0.0818 µM | SK-MEL-5 0.505 µM | CAKI-1 0.251 µM | SF-268 0.771 µM | RPMI-8226 0.145 µM | SNB-19 0.36 µM | SK-OV-3 0.955 µM | A549 0.0413 µM | OVCAR-8 0.708 µM

COC(=O)C1=COC2OC3/C(=C\c4ccc(O)c(OC)c4)C(=O)OC34C=CC1C24 (stereo not given)
14.6 µM: HCT-15
inactive: CCRF-CEM 23.2 µM | SK-MEL-5 35.2 µM | HCT-116 19 µM | CAKI-1 23.3 µM | SF-268 19.5 µM | OVCAR-3 14.9 µM | HCC 2998 10.8 µM | K562 15.5 µM | RPMI-8226 26.1 µM | SNB-19 19.6 µM | SK-OV-3 17 µM | A549 17.1 µM | COLO 205 20.1 µM | OVCAR-5 18.3 µM | HT-29 19.2 µM | IGROV-1 24.4 µM | UACC-257 15.9 µM | OVCAR-8 18.9 µM

COc1cc(C2c3cc4c(cc3[C@@H](Nc3ccc(N5CCOCC5)cc3)C3COC(=O)[C@H]23)OCO4)cc(OC)c1O (stereo not given in full)
0.993 µM: HCT-15
inactive: HCT-116 1.25 µM | EKVX 1.97 µM | OVCAR-3 2.86 µM | HCC 2998 1.99 µM | K562 1.39 µM | COLO 205 2 µM | OVCAR-5 1.82 µM | HT-29 1.65 µM | IGROV-1 4.01 µM | OVCAR-8 1.32 µM
active: CCRF-CEM 0.136 µM | SK-MEL-5 1.04 µM | CAKI-1 0.4 µM | SF-268 1.07 µM | RPMI-8226 0.223 µM | SNB-19 0.2 µM | SK-OV-3 0.738 µM | A549 0.0659 µM

COP(=O)(OC)C(Cc1cn(C(C)=O)c2ccccc12)C(=O)O (stereo not given)
> 100 µM: HCT-15
inactive: CCRF-CEM > 100 µM | SK-MEL-5 > 100 µM | HCT-116 > 100 µM | CAKI-1 > 100 µM | OVCAR-3 > 100 µM | HCC 2998 > 100 µM | K562 > 100 µM | RPMI-8226 > 100 µM | SNB-19 > 100 µM | SK-OV-3 > 100 µM | A549 > 100 µM | COLO 205 > 100 µM | OVCAR-5 > 100 µM | HT-29 > 100 µM | IGROV-1 > 100 µM | UACC-257 > 100 µM | OVCAR-8 > 100 µM

COc1cc(CCCl)c(CC2=NCCc3cc(OC)c(OC)cc32)cc1OC
inactive: CCRF-CEM 45.7 µM | SK-MEL-5 67.8 µM | HCT-116 24.4 µM | CAKI-1 34 µM | SF-268 97.3 µM | EKVX 88.9 µM | OVCAR-3 > 100 µM | HCC 2998 61 µM | K562 31 µM | RPMI-8226 39.4 µM | SNB-19 > 100 µM | SK-OV-3 > 100 µM | A549 > 100 µM | COLO 205 47.4 µM | OVCAR-5 > 100 µM | HT-29 32.5 µM | IGROV-1 29.4 µM | UACC-257 > 100 µM | OVCAR-8 > 100 µM

CCP(=O)(CC)C(Cl)Cl
inactive: CCRF-CEM > 100 µM | SK-MEL-5 > 100 µM | HCT-116 > 100 µM | CAKI-1 > 100 µM | OVCAR-3 > 100 µM | HCC 2998 > 100 µM | K562 > 100 µM | RPMI-8226 > 100 µM | SNB-19 > 100 µM | SK-OV-3 > 100 µM | A549 > 100 µM | COLO 205 > 100 µM | OVCAR-5 > 100 µM | HT-29 > 100 µM | IGROV-1 > 100 µM | UACC-257 > 100 µM | OVCAR-8 > 100 µM
> 100 µM: HCT-15
